The source of these data is patent US20250090565A1, “Compositions and Methods for Treating Bleeding and Bleeding Disorders” (YewSavin, Inc., priority 2021, published 2025).

SMILES strings stand for the structures. Entries after “also recorded” stand apart in the source; their conditions may differ.

Data set [1] relates to ex vivo Hemophilia A human blood. Kind of data set: Ca+2ACT whole blood coagulation time test, Hemophilia A human blood. In kind it is biochemical. The text has this:
(§1) While there are standardized tests such as Activated Partial Thromboplastin Time (“aPTT”) and Partial Thromboplastin Time (“PPT”) that measure blood clotting times (i.e., coagulation times), none of these tests are amenable to testing a small molecule drug, mainly due to the fact that the clotting agents added in these tests completely overcome the effect of the drug. A Calcium +2 ion Activated Coagulation Time test (“Ca+2ACT test”) was developed for measuring coagulation times that is devoid of the activators, thereby allowing drug candidates to be tested and verify their effects. The results described below use whole blood clotting assay and measure the coagulation of blood (i.e., blood's ability to clot), specifically, how much time is required for the clotting.
In this study, calcium chloride (“CaCl2”), a standard coagulating compound, is used as a control to compare the efficacy of various test samples. DMA is used as vehicle for various test samples. In a first study, a freshly prepared 5 μl test sample in DMA is added to a 100 μl blood specimen and then incubated in incubation slot of KC1 Delta machine Correlated Stago-Startmax for 37° C. for 3 min. For the control sample, 50 μl of CaCl2 solution is added, and timer started, to a 100 μl blood specimen to provide a baseline against the test sample. A stop watch, and automated electronic machine display, is used to measure the coagulation time in connection with an electronic signal provided the testing machine. Fresh citrated blood specimen from six healthy volunteers and six hemophilia patients, with initial standard citrate concentration in the collected blood of 3.5%, and “in cuvette” calcium +2 activation (by addition of CaCl2 solution) was obtained.
In this study, the effect of drug is measured by coagulation time of blood using the Ca+2ACT test, in presence of variable concentration of the drug in the test sample. The efficacy tests used 5 microliter of 40 mg/mL solution added to 155 microliter final volume in the clotting cuvette, corresponding to […] of the clotting mixture. For the dose dependence studies, we examined three persons. The twelve concentrations range chosen is 5 microliter of 0.05 mg/mL to 40 mg/mL, the vehicle being zero point concentration. This corresponds to mimimum concentration in the study of 1.66 microgram/mL or 1.66 ppm of the drug, not withstanding Vehicle Control of zero. […] FIG. 45 illustrates coagulation time versus concentration for the candidate molecule 1 for blood specimens from a second patient. FIG. 46 illustrates coagulation time versus concentration for the candidate molecule 1 for blood specimens from a third patient.
As discussed above, the effect is measured by coagulation time of blood using the Ca+2ACT test, in presence of variable concentration of the drug. Initial efficacy tests used 5 microliters of 40 mg/mL solution added to 155 microliter final volume in the clotting cuvette, corresponding to 1.29 mg/1000 mg of the clotting mixture. More recent tests used 10E-2 to 10E-22 as concentration range with 1E-2 interval. Samples were tested no later than eight hours after collection, and preferably, no later than four hours after collection. Often times, with very low and zero concentrations of clotting agents, although the instrument recorded a clotting time, the samples were fluid and partially coagulated at best. However, good fit was obtained at 1E-18 and good statistical difference was obtained at 1E-16, with significant statistical p-values at 10E-8 and higher concentrations, a very good range for drug design. […] The dose dependence study was performed using NDA solvent, and water in case of Eloctate™.

The test system of data set [2] is Factor VIII Deficient Mice. Kind of data set: Fibrin (fibrinogen) content of blood of Factor VIII deficient mice. In kind it is in vivo. Conditions: FVIII deficient mice, blood taken at end of experiment. As for the experimental part: (§2) The purpose of this experiment was to evaluate the effectiveness of chalcones on tail bleeding time in mice. […] A distal 10 mm segment of each mouse's tail was amputated with a scalpel and the remaining tail stump was immediately immersed in a 50 mL Falcon tube containing isotonic saline pre-warmed in a water bath to 37° C. Each mouse was allowed to bleed freely for 20 minutes even if bleeding ceased, in order to detect any re-bleeding. Bleeding time was determined using a stopwatch. At the end of the 20 minutes, the experiment was terminated to avoid lethality. All animals were then bled additionally to obtain a sufficient amount of blood for determining fibrinogen content. Organs were collected, weighed and preserved for future assays.

Data set [3] concerns FVIII-deficient plasma. As to the kind of experiment: Thrombin generation assay (TGA) in FVIII-deficient plasma. In kind it is biochemical, human. The text has this: Thrombin generation is regarded as a significant indicator of the efficiency of blood clotting. Therefore, the thrombin generation assay (“TGA”) can be used as a proxy to estimate overall blood clotting efficiency of factor proteins and others agents from observing the clotting of plasma samples. The thrombin generation experiments were run using a microtiter plate fluorometer. Solvent systems consisting of a buffer, a fluorogenic substrate, and eight candidate compounds in inert solvents were added to pre-warmed citrated FVIII-deficient plasma along with tissue factor. The clotting reactions in the plasma-compound mixtures were initiated by adding calcium chloride solution to all the samples, and the fluorescence measurements recorded by the fluorimeter were compared against negative control (FVIII-deficient plasma without compounds or solvent system), vehicle control (FVIII-deficient plasma with solvent system only), and positive control (FVIII-deficient plasma mixed with regular plasma) reference measurements.
Each of the eight candidate compounds was tested via the TGA at three different concentrations.

The test system of data set [4] is Wistar rats. As to the kind of experiment: Ex vivo capillary clotting assay in Wistar rats. Particulars: ex vivo oral, compared with chromatography fractions (FIG. 3). The text has this:
During the bioassay-guided fractionation process, blood clotting time was used as a screen for active compounds, and a particular class of compounds known as chalcones was discovered to induce blood coagulation. FIG. 3 illustrates a sample result from an ex vivo capillary clotting assay in Wistar rats in accordance with various embodiments of the invention as described in further detail below.

The subject of data set [5] is Factor VIII Deficient Mice. Kind of data set: Tail bleeding assay in FVIII-KO mice. In kind it is in vivo. As for the experimental part: as §2
Data set [6] is described as follows: Bodyweight of Factor VIII deficient mice. In kind it is in vivo. Particulars: FVIII deficient mice, mean (spread).
Data set [7] deals with Factor VIII Deficient Mice. Kind of data set: Capillary clotting time in Factor VIII deficient mice. In kind it is in vivo. Particulars: FVIII deficient mice; HF-2021a oral once daily for seven days; FVIII intravenous.
Data set [8] deals with normal plasma. Kind of data set: Thrombin generation assay (TGA) in normal plasma. In kind it is biochemical, human.
Data set [9] relates to ex vivo healthy human blood. As to the kind of experiment: Ca+2ACT whole blood coagulation time test, healthy human blood. In kind it is biochemical. Particulars: 1 mg/ml, healthy blood specimens; vehicle control 208.87 seconds.
Source text: as §1
In this study, calcium chloride (“CaCl2”), a standard coagulating compound, is used as a control to compare the efficacy of various test samples. DMA is used as vehicle for various test samples. In a first study, a freshly prepared 5 μl test sample in DMA is added to a 100 μl blood specimen and then incubated in incubation slot of KC1 Delta machine Correlated Stago-Startmax for 37° C. for 3 min. For the control sample, 50 μl of CaCl2 solution is added, and timer started, to a 100 μl blood specimen to provide a baseline against the test sample. […]

Data set [10] has as its system heparinized rabbit blood. As to the kind of experiment: Heparinized clotting test (in vitro). In kind it is biochemical. Conditions: rabbit blood 200 μL + heparin 1.25 IU, varying concentrations in DMSO (FIG. 7). As for the experimental part:
The purpose of this experiment was to deduce a potential mechanism of action for chalcones in decreasing blood clotting and bleeding time. First, rabbit blood (200 μL) was added to the anticoagulant drug heparin (1.25 IU) in Eppendorf Tubes®. […] In untreated blood that is still inside a human or an animal, heparan sulfate that is found on cellular surfaces plays an equivalent role to heparin by forming a heparan-antithrombin complex and activating antithrombin.

Regarding `COc1cc(O)c(C(=O)C=Cc2ccc(O)cc2)c(OC)c1OC` [HF-2021a, 1-(6-Hydroxy-2,3,4-trimethoxyphenyl)-3-(4-hydroxy-phenyl)prop-2-en-1-one], the mean clotting time stood at 64.92 s in data set [1] (1 mg/mL, Hemophilia A blood specimens, vehicle control 228.92 seconds) and 74.12 s in [9]. Also, the “coagulation time versus concentration” value in data set [1] (blood specimens of three patients, twelve concentrations (FIG. 44-46)) was “clear dependency”. The “Fibrin content (mg/dL)” value in data set [2] is reported as 281.2 (44.1) mg/dL. Moreover, the “thrombin generation ETP dependence on concentration” value in data set [3] (0.01 mg/ml, 0.1 mg/ml, and 0.4 mg/ml in FVIII-deficient plasma) is “observed dose dependence”. Besides, the “effect on thrombin concentration and ETP compared with HEMLIBRA” value is “comparable effects” in data set [3] (0.1 mg/ml versus any of the concentrations of HEMLIBRA (FIG. 28, 29)) and “slightly larger effect” in data set [3] (0.4 mg/ml versus highest tested HEMLIBRA concentration 75 μg/ml (FIG. 28, 29)). For the same compound, the “thrombin response compared with FVIII-deficient plasma containing 10% of normal FVIII” value in [3] (0.4 mg/ml (FIG. 18, 19)) is “superior to that of 10% of normal FVIII activity”. In addition, in [3] (all tested concentrations, plasma of a patient who had taken ELOCTATE (FIG. 34, 35)), the “thrombin concentration and ETP, combined with ELOCTATE” value is “greater thrombin concentrations and ETPs than ELOCTATE® by itself”. The “effect on capillary clotting time” value in data set [4] was “nearly identical to that of the chromatography fractions”. Besides, the “Optical Density” value in data set [5] (FVIII deficient mice, tail bleeding experiment) is given as 0.5 (0.1). In addition, the “tail bleeding time (in words)” value in [5] (FVIII-KO mice, repeated oral administrations, versus standard FVIII therapy (FIG. 4)) is “outperforming the standard FVIII therapy; also recorded: significantly improved”. Besides, the “Survival Rate” value in [5] (after 48 hours) is 3/5 after. The “Bleeding Time (Seconds)” value in [5] (tail amputation 10 mm, saline 37° C., HF-2021a oral once daily for seven days, FVIII intravenous) is 41.8 (9.7) Seconds. Besides, in data set [6] (Day 0 (baseline)), the “Bodyweight (Day 0)” value was 17.4 (1.4). Further, the “Bodyweight (Day 7)” value in data set [6] (Day 7) is 18.8 (1.1). In addition, in data set [7], the “Capillary Clotting Time (Seconds)” value is 44.6 (13.2) Seconds. Also, in data set [8] (normal plasma (FIG. 20)), the “thrombin generation curves versus concentration” value was “dose dependent response”. The “thrombin generation ETP versus concentration” value in [8] (normal plasma (FIG. 21)) is given as “dose dependent response is also observed”. In addition, in data set [10], the “blood clotting time versus concentration” value is “dose dependence relationship was observed”.
